System: 616215-338-R-J1-PDC complex spheroid viability
Assay: Anticancer human tumor 616215-338-R-J1-PDC patient-derived colon adenocarcinoma cell line growth inhibition [POLQ]
Conditions: for IC50: curve of first compound; for viability, T/C: stronger effect = lower value; active = viability on the fitted dose curve at most 10% of control; inactive = the rest
How it was run: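 Patient-derived tumour cells were co-cultured with HUVEC and mesenchymal stem cells as multicellular spheroids at 37 °C. They were treated with POLQ inhibitors (novobiocin, ART-558, RP6685) alone or combined with other agents. Top concentrations were at or near clinical Cmax (otherwise 10 microM; SN-38 at 1 microM), decreasing in half-log steps.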

[1] = second compound 0.0316 µM, first compound 0.0316 µM
[2] = second compound 0.0316 µM, first compound 0.1 µM
[3] = second compound 0.0316 µM, first compound 0.316 µM
[4] = second compound 0.0316 µM, first compound 1 µM
[5] = second compound 0.0316 µM, first compound 3.16 µM
[6] = second compound 0.0316 µM, first compound 10 µM
[7] = second compound 0.1 µM, first compound 0.0316 µM
[8] = second compound 0.1 µM, first compound 0.1 µM
[9] = second compound 0.1 µM, first compound 0.316 µM
[10] = second compound 0.1 µM, first compound 1 µM
[11] = second compound 0.1 µM, first compound 3.16 µM
[12] = second compound 0.1 µM, first compound 10 µM
[13] = second compound 0.316 µM, first compound 0.0316 µM
[14] = second compound 0.316 µM, first compound 0.1 µM
[15] = second compound 0.316 µM, first compound 0.316 µM
[16] = second compound 0.316 µM, first compound 1 µM
[17] = second compound 0.316 µM, first compound 3.16 µM
[18] = second compound 0.316 µM, first compound 10 µM
[19] = second compound 1 µM, first compound 0.0316 µM
[20] = second compound 1 µM, first compound 0.1 µM
[21] = second compound 1 µM, first compound 0.316 µM
[22] = second compound 1 µM, first compound 1 µM
[23] = second compound 1 µM, first compound 3.16 µM
[24] = second compound 1 µM, first compound 10 µM
[25] = second compound 3.16 µM, first compound 0.0316 µM
[26] = second compound 3.16 µM, first compound 0.1 µM
[27] = second compound 3.16 µM, first compound 0.316 µM
[28] = second compound 3.16 µM, first compound 1 µM
[29] = second compound 3.16 µM, first compound 3.16 µM
[30] = second compound 3.16 µM, first compound 10 µM
[31] = second compound 10 µM, first compound 0.0316 µM
[32] = second compound 10 µM, first compound 0.1 µM
[33] = second compound 10 µM, first compound 0.316 µM
[34] = second compound 10 µM, first compound 1 µM
[35] = second compound 10 µM, first compound 3.16 µM
[36] = second compound 10 µM, first compound 10 µM
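Note: spheroids exposed to compounds for one week before readout.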
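Throughout, for viability, T/C: percent viability relative to DMSO vehicle wells taken as 100%.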

C=CC(=O)N1CCN(c2nc(=O)n(-c3c(C)ccnc3C(C)C)c3nc(-c4c(O)cccc4F)c(F)cc23)C(C)C1 (stereo not drawn) + Cc1cccc(N(C)C(=O)C2C(O)CCN2c2nc(C)cc(C(F)(F)F)c2C#N)c1
inactive: viability, T/C [1] 102% | viability, T/C [2] 95.3% | viability, T/C [3] 95.8% | viability, T/C [4] 109% | viability, T/C [5] 100% | viability, T/C [6] 98.3% | viability, T/C [7] 95.6% | viability, T/C [8] 95.3% | viability, T/C [9] 88.2% | viability, T/C [10] 105% | viability, T/C [11] 104% | viability, T/C [12] 90.3% | viability, T/C [13] 93.8% | viability, T/C [14] 99.2% | viability, T/C [15] 99.6% | viability, T/C [16] 104% | viability, T/C [17] 108% | viability, T/C [18] 97% | viability, T/C [19] 96.7% | viability, T/C [20] 86% | viability, T/C [21] 88.1% | viability, T/C [22] 101% | viability, T/C [23] 105% | viability, T/C [24] 86.2% | viability, T/C [25] 96.6% | viability, T/C [26] 122% | viability, T/C [27] 103% | viability, T/C [28] 101% | viability, T/C [29] 97.6% | viability, T/C [30] 91.6% | viability, T/C [31] 105% | viability, T/C [32] 99.6% | viability, T/C [33] 90.9% | viability, T/C [34] 104% | viability, T/C [35] 95.3% | viability, T/C [36] 73%
> 10 µM: IC50 (second compound 0.0316 µM) | IC50 (second compound 0.1 µM) | IC50 (second compound 0.316 µM) | IC50 (second compound 1 µM) | IC50 (second compound 3.16 µM) | IC50 (second compound 10 µM)

CC1COCCN1c1cc(-c2ccnn2C)c2ccnc(-c3ccn[nH]3)c2n1 (stereo not drawn) + Cc1cccc(N(C)C(=O)C2C(O)CCN2c2nc(C)cc(C(F)(F)F)c2C#N)c1
1.99 µM: IC50 (second compound 3.16 µM)
inactive: viability, T/C [1] 104% | viability, T/C [2] 110% | viability, T/C [3] 76.7% | viability, T/C [4] 66.2% | viability, T/C [5] 49.4% | viability, T/C [6] 50.6% | viability, T/C [7] 103% | viability, T/C [8] 100% | viability, T/C [9] 69.5% | viability, T/C [10] 61.8% | viability, T/C [11] 50.1% | viability, T/C [12] 50.5% | viability, T/C [13] 107% | viability, T/C [14] 91.1% | viability, T/C [15] 66.3% | viability, T/C [16] 57.4% | viability, T/C [17] 52.4% | viability, T/C [18] 53% | viability, T/C [19] 101% | viability, T/C [20] 91% | viability, T/C [21] 71.9% | viability, T/C [22] 57.1% | viability, T/C [23] 53% | viability, T/C [24] 40.8% | viability, T/C [25] 114% | viability, T/C [26] 95.2% | viability, T/C [27] 72.2% | viability, T/C [28] 54% | viability, T/C [29] 44.1% | viability, T/C [30] 47.9% | viability, T/C [31] 111% | viability, T/C [32] 90.6% | viability, T/C [33] 68% | viability, T/C [34] 49.2% | viability, T/C [35] 47.5% | viability, T/C [36] 36.8%
> 10 µM: IC50 (second compound 0.0316 µM) | IC50 (second compound 0.1 µM) | IC50 (second compound 0.316 µM)
2.79 µM: IC50 (second compound 1 µM)
1.24 µM: IC50 (second compound 10 µM)

CCc1cc2c(N3CCc4c(cc(Cn5ccnc5)cc4-c4cn(C)nc4C(F)(F)F)C3=O)ccnc2c(OC)n1 + Cc1cccc(N(C)C(=O)C2C(O)CCN2c2nc(C)cc(C(F)(F)F)c2C#N)c1
6.68 µM: IC50 (second compound 1 µM)
8.63 µM: IC50 (second compound 0.0316 µM)
6.35 µM: IC50 (second compound 0.1 µM)
inactive: viability, T/C [1] 98% | viability, T/C [2] 102% | viability, T/C [3] 86.4% | viability, T/C [4] 69.4% | viability, T/C [5] 63.9% | viability, T/C [6] 46.8% | viability, T/C [7] 107% | viability, T/C [8] 106% | viability, T/C [9] 83.2% | viability, T/C [10] 84.2% | viability, T/C [11] 52.7% | viability, T/C [12] 46.3% | viability, T/C [13] 106% | viability, T/C [14] 102% | viability, T/C [15] 94% | viability, T/C [16] 70.8% | viability, T/C [17] 54.5% | viability, T/C [18] 43.8% | viability, T/C [19] 113% | viability, T/C [20] 104% | viability, T/C [21] 88.4% | viability, T/C [22] 74.1% | viability, T/C [23] 58.8% | viability, T/C [24] 45.2% | viability, T/C [25] 97% | viability, T/C [26] 94.8% | viability, T/C [27] 95% | viability, T/C [28] 63% | viability, T/C [29] 59.3% | viability, T/C [30] 41.3% | viability, T/C [31] 98% | viability, T/C [32] 88.6% | viability, T/C [33] 90.9% | viability, T/C [34] 61.7% | viability, T/C [35] 60.7% | viability, T/C [36] 43.5%
4.78 µM: IC50 (second compound 0.316 µM)
3.9 µM: IC50 (second compound 3.16 µM)
5.8 µM: IC50 (second compound 10 µM)

COc1ccc([C@@H](O)c2cc(-c3ncnc4cc(N5CCOCC5)ccc34)c(F)cc2Cl)nn1 + Cc1cccc(N(C)C(=O)C2C(O)CCN2c2nc(C)cc(C(F)(F)F)c2C#N)c1
inactive: viability, T/C [1] 97.8% | viability, T/C [2] 108% | viability, T/C [3] 94.8% | viability, T/C [4] 113% | viability, T/C [5] 101% | viability, T/C [6] 78.7% | viability, T/C [7] 92.6% | viability, T/C [8] 108% | viability, T/C [9] 108% | viability, T/C [10] 109% | viability, T/C [11] 100% | viability, T/C [12] 72.2% | viability, T/C [13] 108% | viability, T/C [14] 108% | viability, T/C [15] 100% | viability, T/C [16] 111% | viability, T/C [17] 109% | viability, T/C [18] 73.5% | viability, T/C [19] 114% | viability, T/C [20] 111% | viability, T/C [21] 109% | viability, T/C [22] 122% | viability, T/C [23] 103% | viability, T/C [24] 70.5% | viability, T/C [25] 97.5% | viability, T/C [26] 104% | viability, T/C [27] 102% | viability, T/C [28] 102% | viability, T/C [29] 105% | viability, T/C [30] 80.3% | viability, T/C [31] 112% | viability, T/C [32] 100% | viability, T/C [33] 99.8% | viability, T/C [34] 111% | viability, T/C [35] 99.8% | viability, T/C [36] 55.6%
> 10 µM: IC50 (second compound 0.0316 µM) | IC50 (second compound 0.1 µM) | IC50 (second compound 0.316 µM) | IC50 (second compound 1 µM) | IC50 (second compound 3.16 µM) | IC50 (second compound 10 µM)

From PubChem BioAssay AID1963843 (Molecular Pharmacology Branch, DTP, NCI, 2024)
